One data set deals with WT-amylin fibrillization. The following applies: cited from earlier work. An excerpt: In type 2 diabetes, the positively charged 37-residue hormone amylin misfolds into cationic fibrils which have been implicated in the destruction of the pancreatic β-cells that make insulin and amylin, thus contributing to pathology. Amylin is a particularly favorable system for investigating the roles of charges in fibrillization, since the core of the intermolecular β-sheet fibril structure has only one pH-titratable group, His18 [9]. The histidine acts as an electrostatic switch, inhibiting fibrillization in its charged state at acidic pH and favoring fibrillization in its uncharged ... || An IC50 analysis of the inhibition data was performed to obtain quantitative information (Figure 5). The Arg-1 concentration-dependence for the inhibition of WT-amylin fibril elongation rates gives an IC50 value of 0.6 ± 0.5 μM. For Arg-2 and Mem-T, the IC50 values are ~10 μM (Figure 5(a)). In addition to effecting elongation rates, Arg-2 increases the lag times for WT-amylin fibrillization with an IC50 of ~0.1 μM. […] Moreover, addition of a single charged lysine residue ...

Data set [1] relates to MIN6 mouse model of pancreatic β-cells. Conditions: melittin compared with 160 μM WT-amylin. On the procedure: (§1) The stock solutions were diluted with FBS-free DMEM and sonicated continuously for 5 min at 75% amplitude before use. FBS was subsequently added to a concentration of 15% (v/v), giving final amylin concentrations of 40, 80, and 160 μM. The final DMSO concentration for all cytotoxicity experiments was 1% (v/v).
(§2) Cytotoxicity was measured using the mouse insulinoma 6 (MIN6) cell line model of β-pancreatic cells, which were a gift from Dr. Anil Rustgi (University of Pennsylvania). Cells were seeded at a density of 20,000 per 100 μL in black clear-bottom 96-well plates. The cells were grown in DMEM with 15% FBS, 25 mM glucose, 2 mM L-glutamine, […] sodium pyruvate, 55 μM β-mercaptoethanol, 1000 units/mL penicillin, and 100 μg/mL streptomycin, for 20 h at 37°C in a humidified incubator with 5% CO2. […] The cells were incubated for another 24 h followed by the addition of 10% (v/v) of the redox indicator dye Alamar Blue at the concentration supplied by the manufacturer (Invitrogen). Fluorescence, due to the reduction of Alamar Blue by viable cells, was measured after 6 h, using excitation and emission wavelengths of 544 and 590 nm, respectively. Cell viability was calculated from the ratio of Alamar Blue fluorescence in treated to untreated cells. Uncertainties were calculated as the SEMs of triplicate measurements.

Data set [2] concerns the target T1, WT-amylin (Homo sapiens, UniProt P10997).
T1 sequence (P10997 34-70 limits assumed): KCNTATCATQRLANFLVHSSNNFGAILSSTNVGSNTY
Briefly: ThT assay, inhibition of WT-amylin fibrillization by analogs added in trans. Also noted: purchased Biopeptide (San Diego, CA); host or cells: solid-phase synthesis. Conditions: for reduction of WT-amylin elongation rate: Arg-1 between 0 and 200 μM. It counts as biochemical. As for the experimental part:
The time course of fibrillization in solution was monitored using 100–200 μL amylin samples, contained in white polystyrene clear bottom 96-well plates (Corning Inc., Corning, NY). Plates were covered with a clear polyester sealing tape (Fisher Scientific, Agawam, MA) to prevent evaporation. Stock solutions of 1.1 mM WT-amylin and inhibitor peptides were prepared in 100% DMSO, which dissolves and disaggregates amylin fibrils, and were stored at −80°C when not in use. […] For experiments using larger 400 μM concentrations of Arg-2 and Mem-T, the solutions were prepared by diluting 100% DMSO stock solutions of 20 mM peptide to a final DMSO concentration of 2% (v/v). Amylin was the last component added to the samples for the kinetic reactions, in order to reduce the dead time for the experiments. The plates were incubated at 25°C without agitation. Fluorescence intensity was recorded at 2 min intervals with excitation at 440 nm and emission at 490 nm on a Fluoroskan Ascent 2.5 fluorescence plate reader. Fibrillization reactions for the peptides alone were performed in triplicate and for analog-peptide inhibition of WT-amylin in duplicate, to estimate experimental uncertainties in kinetic parameters.

The nature of data set [3]: TEM of aggregates formed by peptides alone. The class given is physicochemical. The following applies: 80 μM peptide, 2 days, 20 mM phosphate pH 7.4, 37°C, no agitation. On the procedure:
(§3) Samples containing 80 μM concentrations of WT-amylin and the three analogs were incubated without agitation at a temperature of 37°C in 20 mM phosphate buffer (pH 7.4). For the inhibition reactions, samples contained WT-amylin at an 80 μM concentration, together with 160 μM of Arg-1, Arg-2, or Mem-T analogs. Aliquots from the reactions were removed after 2 days for TEM imaging. The aliquots were blotted onto carbon-coated 400-mesh Maxtaform copper grids (Ted Pella Inc. Redding, CA) for 1–3 min, followed by negative staining with 1% uranyl acetate. TEM images were recorded on an FEI Tecnai G^2 Spirit BioTwin transmission electron microscope equipped with an AMT XR-40 camera.

For data set [4], the system named is WT-amylin cytotoxicity towards MIN6 mouse model of pancreatic β-cells. In words: Protection of MIN6 cells against WT-amylin cytotoxicity (Alamar Blue). As for the experimental part: as §1, §2
Background: The colour change of resazurin is a common sign of viable cells or microbes.

Data set [5] in a line: ThT assay of fibrillization kinetics, peptides alone. The following applies: 20 μM peptide, 150 mM NaCl. The class given is physicochemical. As for the experimental part: The time course of fibrillization in solution was monitored using 100–200 μL amylin samples, contained in white polystyrene clear bottom 96-well plates (Corning Inc., Corning, NY). Plates were covered with a clear polyester sealing tape (Fisher Scientific, Agawam, MA) to prevent evaporation. Stock solutions of 1.1 mM WT-amylin and inhibitor peptides were prepared in 100% DMSO, which dissolves and disaggregates amylin fibrils, and were stored at −80°C when not in use. Starting from the 1.1 mM stock solutions in 100% DMSO, samples for fibrillization reactions were prepared to contain 20 μM amylin and 10 μM ultrapure ThT, in 20 mM sodium phosphate buffer, pH 7.4, and a final DMSO concentration of 2% (v/v). For experiments using larger 400 μM concentrations of Arg-2 and Mem-T, the solutions were prepared by diluting 100% DMSO stock solutions of 20 mM peptide to a final DMSO concentration of 2% (v/v). Amylin was the last component added to the samples for the kinetic reactions, in order to reduce the dead time for the experiments. The plates were incubated at 25°C without agitation. Fluorescence intensity was recorded at 2 min intervals with excitation at 440 nm and emission at 490 nm on a Fluoroskan Ascent 2.5 fluorescence plate reader. Fibrillization reactions for the peptides alone were performed in triplicate and for analog-peptide inhibition of WT-amylin in duplicate, to estimate experimental uncertainties in kinetic parameters.

Data set [6] concerns the target T1, WT-amylin. In words: TEM of WT-amylin fibrils formed in presence of inhibitor peptides. The class given is biochemical. Also noted: purchased Biopeptide (San Diego, CA); host or cells: solid-phase synthesis. The following applies: 80 μM WT-amylin with 160 μM analog, 20 mM sodium phosphate pH 7.4, 1% DMSO, 37°C, 24 h. As for the experimental part: as §3
Figure 8 TEM images of fibrils formed from 80 μM WT amylin in the presence or absence of inhibitor peptides. (a) WT amylin alone, (b) with 160 μM Arg-1, (c) with 160 μM Arg-2, and (d) with 160 μM Mem-T. Aliquots were removed for TEM imaging 24 h after the fibrillization reactions were started. Reactions were carried out in 20 mM sodium phosphate (pH 7.4), 1% DMSO (v/v), at 37°C.

In data set [7] the test system is MIN6 models of pancreatic β-cells. The following applies: neutral pH, cited from earlier work. The source says: In type 2 diabetes, the positively charged 37-residue hormone amylin misfolds into cationic fibrils which have been implicated in the destruction of the pancreatic β-cells that make insulin and amylin, thus contributing to pathology. Amylin is a particularly favorable system for investigating the roles of charges in fibrillization, since the core of the intermolecular β-sheet fibril structure has only one pH-titratable group, His18 [9]. The histidine acts as an electrostatic switch, inhibiting fibrillization in its charged state at acidic pH and favoring fibrillization in its uncharged ... || The motivation for the studies described in this work was to see if electrostatic charge repulsion could be exploited to design new types of inhibitors of amylin fibrillization and cytotoxicity. […] Moreover, addition of a single charged lysine residue ...

We go through 4 compounds from publication PMC4630399, “Charge-Based Inhibitors of Amylin Fibrillization and Toxicity” (Journal of Diabetes Research, 2015).

Entries after “also recorded” stand apart in the source; their conditions may differ. Read-outs that look alike come from different tables or passages of the source. Positions of bridges follow the written chain, without caps; N, C: chain ends. Residues, ends and D or L forms follow the SMILES beside them. No end group written: not given here.

For the compound heparin, the “effect on WT-amylin fibrillization” value in the data set on WT-amylin fibrillization is recorded as “enhance fibrillization of WT-amylin”.

melittin: the “viability of MIN6 cells, positive control” value in data set [1] was “comparable to the value obtained with the potent toxin melittin”.

By IC50 is commonly meant the concentration that inhibits the measured activity by half. Low values mean higher potency, high ones lower potency. On to `CC[C@H](C)[C@H](NC(=O)[C@H](C)NC(=O)CNC(=O)[C@H](Cc1ccccc1)NC(=O)[C@H](CC(N)=O)NC(=O)[C@H](CC(N)=O)NC(=O)[C@H](CO)NC(=O)[C@H](CO)NC(=O)[C@H](Cc1c[nH]cn1)NC(=O)[C@H](CCCNC(=N)N)NC(=O)[C@H](CCCNC(=N)N)NC(=O)[C@H](CCCNC(=N)N)NC(=O)[C@H](CCCNC(=N)N)NC(=O)[C@H](C)NC(=O)[C@H](CC(C)C)NC(=O)[C@H](CCCNC(=N)N)NC(=O)[C@H](CCC(N)=O)NC(=O)[C@@H](NC(=O)[C@H](C)NC(=O)[C@@H]1CSSC[C@H](NC(=O)[C@@H](N)CCCCN)C(=O)N[C@@H](CC(N)=O)C(=O)N[C@@H]([C@@H](C)O)C(=O)N[C@@H](C)C(=O)N[C@@H]([C@@H](C)O)C(=O)N1)[C@@H](C)O)C(=O)N[C@@H](CC(C)C)C(=O)N[C@@H](CO)C(=O)N[C@@H](CO)C(=O)N[C@H](C(=O)N[C@@H](CC(N)=O)C(=O)N[C@H](C(=O)NCC(=O)N[C@@H](CO)C(=O)N[C@@H](CC(N)=O)C(=O)N[C@H](C(=O)N[C@@H](Cc1ccc(O)cc1)C(N)=O)[C@@H](C)O)C(C)C)[C@@H](C)O` [Arg-1] (H-KCNTATCATQRLARRRRHSSNNFGAILSSTNVGSNTY-NH2; disulfide 2-7 (inferred); N-terminus assumed), for which, at WT-amylin [2] (20 μM WT-amylin, 150 mM NaCl), the “effect on WT-amylin fibrillization lag time” value is given as “no effects on the lag times within experimental uncertainty”, the “effect on steady-state fluorescence plateau” value is “reduction in the steady-state fluorescence plateaus; also recorded: only observed to decrease with the Arg-1 analog” and the “reduction of WT-amylin elongation rate” value is recorded as 7 fold. In addition, the “reduction of WT-amylin fibril elongation rate” value on WT-amylin [2] (20 μM WT-amylin, 150 mM NaCl, analog 0.001 to 120 μM) is 8–10 fold. Besides, the “reduction of WT-amylin elongation rate” value on WT-amylin [2] (20 μM WT-amylin, absence of salt) was 4 fold. In addition, at WT-amylin [2] (80 μM WT-amylin, increasing Arg-1, 150 mM NaCl), the “effect on WT-amylin lag times, elongation rates and fluorescence plateaus” value is “increases in lag times with increasing Arg-1 concentration as well as decreases in elongation rates and steady-state fluorescence plateaus”. Further, in data set [3], the “aggregate morphology by TEM” value is given as “formed much fewer fibrils; also recorded: formed a larger proportion of short fibrils than WT-amylin; also recorded: fewer fibrils with shorter lengths”. Besides, in data set [4] (MIN6 cells, 80 μM WT-amylin, up to 2 : 1 inhibitor : WT-amylin), the “protection against WT-amylin cytotoxicity (overall)” value was “protects against WT-amylin cytotoxicity”. Besides, the half-inhibitory concentration (IC50) in data set [4] (mouse, 24 h) is approximately 50 µM. Moreover, in data set [5], the “increase of lag time compared to WT-amylin” value is “about 2 fold” and the “reduction of elongation rate compared to WT-amylin” value is “about 30%”. Also, the “fibrillization detected (ThT)” value in data set [5] (pH 7.4, 25°C) is recorded as “detect fibrillization”. This compound also gave a fibrillization lag time in data set [5] (20 mM sodium phosphate pH 7.4, 10 μM ThT, 2% DMSO, 25°C, no agitation, fluorescence ex 440/em 490 nm, triplicate) of 210 min. This compound returned a fibril elongation rate in data set [5] (20 mM sodium phosphate pH 7.4, 10 μM ThT, 2% DMSO, 25°C, no agitation, triplicate) of 0.0068 min⁻¹. The “TEM of WT-amylin fibrils formed with inhibitor” value at WT-amylin [6] was “somewhat fewer fibrils and a greater amount of short fibrils”.

As to “H18R: H18R mutant of amylin (KCNTATCATQRLANFLVRSSNNFGAILSSTNVGSNTY; not fully specified (C-terminus); ends and bridges not checked; UniProt P10997 34-70, looked up, variant H18R)”, the “cytotoxicity to β-cells” value was “not cytotoxic to β-cells” in data set [7] and “lowers cytotoxicity to MIN6 models of pancreatic β-cells compared to WT-amylin” in data set [7] (listed as Substitution of a positively charged arginine at position 18).
